Results as given in patent US20110293745A1, “AURORA KINASE INHIBITORS” (SUNESIS PHARMACEUTICALS, INC., priority 2008, published 2011).
Where two headings read alike, the source gives them in different places.

What was measured:
[1] = Distribution of compound in tumor and plasma, HCT 116 xenograft mice; type: in vivo, mouse; conditions: for half-life: female, nu/nu athymic, mouse, ip, 170 mg/kg
Procedure: The studies in Examples 20, 21, and 22 used female mice nu/nu athymic mice. Compound 1 was formulated fresh each week for dosing. […] HCT 116 colorectal carcinoma cells were implanted in the animals' right hind flanks subcutaneously with 200 μL of a 2.5×10^7 cells/mL suspension [1:1 Dulbecco's PBS (DPBS) with cells:Matrigel™. […] Dosing schedules are provided separately for each of the studies in Examples 28, 29, and 30. […] Terminal blood and tumor samples were harvested between 15 min and 96 hr. Female nu/nu athymic mice received HCT 116 colorectal cancer cell suspension (1:1 DPBS with cells:Matrigel) as a subcutaneous injection in the right hind flank. […] For HPLC-MS/MS, the detector consisted of an API4000 (Sciex/ABI, Foster City, Calif.) triple quadrapole mass spectrometer using turbo electrospray ionization.

[2] = system: pHH3 in HCT 116 xenograft tumor; assay: Plasma concentration versus pHH3 in tumor (Western blot, ELISA, HPLC-MS/MS); type: in vivo, mouse
Procedure: When tumors reached an average volume of 400 mm^3, mice were sorted into randomized groups of 3 per time point. […] Tumor samples were frozen on liquid nitrogen, and ground into a fine powder. Lysis buffer containing phosphatase inhibitors was added to the tumor powder before homogenization and a snap freeze cycle. The cellular debris was removed by centrifugation, and the protein concentration was measured using the BioRad DC Protein Assay. […] Protein was transferred to PVDF membrane at a constant 30 V for 1 hr using the Invitrogen XCell II Blot Module transfer system and, upon completion, the membranes were incubated with 5% milk in TBST (Tris-buffered saline with Tween) at room temperature for 1 hr. […] Membranes were washed with TBST, and antibodies were detected with ECL Plus chemiluminescent detection system (Amersham), followed by exposure to Kodak BioMax film.
Films were visually assessed for total histone H3 (HH3) and histone H3 phosphorylation (pHH3). Total HH3 levels served as loading controls.
Phospho-histone H3 levels were determined using a commercial ELISA kit from (# KHO0671, Biosource/Invitrogen). The conditions were as described by the manufacturer with 100 μg total proteins from tumor lysates prepared as described in this Example.
Preparation of Plasma Samples. […]

[3] = system: histone H3 phosphorylation in epidermis; assay: pHH3 immunohistochemistry in mouse skin punches; type: in vivo
Procedure: For each study, animals were randomized by tumor volume and distributed into groups of ten animals each. […] Inhibition of histone H3 (HH3) phosphorylation was evaluated in HCT 116 xenograft tumors, mouse femur bone marrow, and mouse skin punch biopsy sections by immunohistochemistry (IHC). […] The tumors were collected 6 hrs post-dose on day 4, 11, 18 and on day 25 (one week after completion of dosing phase of the experiment). Phosphorylated histone H3 (pHH3) was detected by immunohistochemistry staining of tissue sections with the antibody # 9701 (Cell Signaling Technology, Inc.), which recognizes phosphorylation of Ser10 residue in histone H3 protein. […] Three mice in each group were sacrificed on day 4 and day 18, 6 hours post-dose. Skin punches (8 mm) were fixed in formalin, trimmed, and sections stained to identify cells positive for histone H3 phosphorylation.

HT-29 = assay: cells; conditions: Homo sapiens, HT-29, 96 h, read-out: BrdU IC50
Procedure: Cellular proliferation was assessed using the Cell Proliferation ELISA, bromodeoxyuridine (BrdU) kit (Roche) including reagents, according to the kit protocol.

Axl = molecular target: T1, Axl (Homo sapiens, UniProt P30530); assay: Radiometric kinase assay (Upstate panel); type: biochemical
T1 construct: purchased Upstate Biotechnology, Dundee, UK

HL-60 = assay: cells; conditions: Homo sapiens, HL-60, 16 h, read-out: Cell Cycle EC50
Procedure: (§1) Cells were fixed, stained, and analyzed. The percentage of cells with ≧4N DNA content as a function of concentration was fit to estimate EC50. For cell cycle analysis on nonadherent cells or cells with irregular morphology (A2780, HL-60, CCRF-CEM, and HT-29), tumor cells were seeded in 12-well tissue culture plates overnight at 37° C. […] Cells were trypsinized, collected, stained with propidium iodide, and analyzed by flow cytometry.

A375 = assay: cells; conditions: Homo sapiens, A-375, 16 h, read-out: Cell Cycle EC50
Procedure: as §1

PC3 = assay: cells; conditions: Homo sapiens, PC-3, 16 h, read-out: Cell Cycle EC50
Procedure: as §1

MDA-MB-231 = assay: cells; conditions: Homo sapiens, MDA-MB-231, 16 h, read-out: Cell Cycle EC50
Procedure: as §1

[4] = system: PC3 prostate tumor xenograft; assay: In vivo efficacy, mouse xenograft
Procedure: Percent TGI is then calculated with the following equation: […]
Time To Endpoint (TTE) was calculated for each individual animal to reach the predetermined study end point where the tumor volume becomes 1200 mm^3 or 10% of body weight or a greater than 20% body weight loss for two sequential measurements. The TTE is calculated and the median value is recorded for the group. Tumor Growth Delay (TGD) is then calculated with the following equation: […]
PC3 prostate tumor fragments (1 mm^3) were implanted subcutaneously in the right hind flank of mice. After 21 days, when tumors reached a volume of approximately 120 mm^3, animals were weighed, randomized by tumor volume (l×w×h×0.52), and assigned to the various study groups before initial dosing.

[5] = system: pHH3 in HCT 116 tumor xenograft; assay: Phospho-histone H3 in vivo (Western blot of tumor); design: species or system mouse; conditions: single 50 mg/kg and 100 mg/kg IP; 3 hr, 6 hr, 10 hr post administration
Text: For each of the studies of compound distribution, pHH3 levels, and tumor section microscopy, after the tumors reached an average volume of 500 mm^3, the animals were weighed and sorted into randomized groups before initial dosing.

[6] = Mass balance, elimination, autoradiography and metabolites with 14C-label; type: in vivo; conditions: male rats, 14C-labeled Compound 1 IV bolus 50 mg/kg, total radioactivity
Procedure: Treated rats were further cannulated in femoral vein and the bile duct to allow for the evaluation of the rate and extent of elimination of total radioactivity from urine, bile, and feces. Total radioactivity was analyzed by liquid scintillation counting.
Preparation of samples for metabolite analysis was as follows. Plasma samples were extracted by protein precipitation with acetonitrile. The extraction was preformed by adding ice cold acetonitrile (3 parts) to plasma (1 part v/v). After the samples were mixed using a benchtop vortex mixer the samples were centrifuged, the supernatants were transferred to silanized glass tubes, evaporated to dryness under nitrogen, and reconstituted in 50/50 acetonitrile/water solution. Urine samples were directly injected. Bile samples containing radioactivity were diluted in water prior to injection.
Metabolites in plasma, urine, and bile were separated on a reverse phase HPLC column with an Agilent 1000 system (Santa Clara, Calif.).

[7] = Rising dose pharmacokinetics (exposure, gender); type: in vivo, rats; conditions: for clearance / half-life / Vd: Sprague-Dawley, plasma, iv
Text: Pharmacokinetic parameters were estimated using noncompartmental analysis within WinNonlin v. 4.1. […] For rising dose experiments measuring exposure for each species, sets containing several animals were singly dosed at a given dose.

T1 sequence (P30530 26-894): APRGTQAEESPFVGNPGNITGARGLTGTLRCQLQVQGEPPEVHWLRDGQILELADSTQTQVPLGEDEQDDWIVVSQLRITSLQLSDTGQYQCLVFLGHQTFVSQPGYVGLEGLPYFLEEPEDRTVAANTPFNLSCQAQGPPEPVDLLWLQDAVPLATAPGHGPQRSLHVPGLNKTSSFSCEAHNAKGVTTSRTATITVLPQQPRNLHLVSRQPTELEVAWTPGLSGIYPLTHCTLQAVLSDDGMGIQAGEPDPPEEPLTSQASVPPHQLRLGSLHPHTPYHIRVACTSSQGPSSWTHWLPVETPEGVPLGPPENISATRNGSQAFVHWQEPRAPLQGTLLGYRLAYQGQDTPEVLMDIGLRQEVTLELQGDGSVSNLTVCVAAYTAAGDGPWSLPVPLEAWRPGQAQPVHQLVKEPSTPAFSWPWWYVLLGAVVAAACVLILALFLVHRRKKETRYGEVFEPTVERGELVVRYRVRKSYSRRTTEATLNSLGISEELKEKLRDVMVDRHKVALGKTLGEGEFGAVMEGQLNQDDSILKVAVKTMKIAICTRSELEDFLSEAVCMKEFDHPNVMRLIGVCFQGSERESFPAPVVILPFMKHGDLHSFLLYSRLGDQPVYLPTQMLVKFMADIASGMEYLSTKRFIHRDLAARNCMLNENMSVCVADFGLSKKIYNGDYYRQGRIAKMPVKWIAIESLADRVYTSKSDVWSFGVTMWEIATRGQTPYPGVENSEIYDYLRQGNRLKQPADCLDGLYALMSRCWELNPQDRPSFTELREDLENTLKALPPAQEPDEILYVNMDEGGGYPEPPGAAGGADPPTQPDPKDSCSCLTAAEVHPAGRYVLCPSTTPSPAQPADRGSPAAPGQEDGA

## CS(=O)(=O)O.O=C(Nc1cccc(Cl)c1)Nc1ncc(CCNc2ncnc3ccsc23)s1 [Compound 1, 1-(3-chlorophenyl)-3-{5-[2-(thieno[3,2-d]pyrimidin-4-ylamino)ethyl]thiazo}-urea]
[1]; post-dose
  time measurable drug levels are sustained in the HCT 116 tumor: more than 96 hours
[2]; single dose of 170 mg/kg IP
  time maximal inhibition of phospho-histone H3 in tumor was maintained: up to 24 hours
[3]; 150 mg/kg biweekly for 3 weeks, day 4 and day 18, 6 hours post-dose
  reduction of number of phospho-histone H3 positively stained cells in epidermis versus vehicle: ~50%
[3]; day 25
  number of positively stained cells in epidermis versus vehicle: still decreased
HT-29
  IC50: 24.4 nM
Axl
  IC50: 0.084 µM
HL-60
  EC50: 7 nM
A375
  EC50: 93 nM
PC3
  EC50: 11 nM
MDA-MB-231
  EC50: 30 nM
[4]; 42.5 mg/kg biw × 3
  % TGI: 39.5%
  TGD: 0 days
[4]; 85 mg/kg biw × 3
  % TGI: 63.6%
  TGD: 12 days
[4]; 170 mg/kg biw × 3
  % TGI: 67.5%
  TGD: 25 days
[5]
  level of pHH3 in tumor versus vehicle-treated mice: decreased

## O=C(Nc1cccc(Cl)c1)Nc1ncc(CCNc2ncnc3ccsc23)s1 [Compound 2, 1-(3-chlorophenyl)-3-{5-[2-(thieno[3,2-d]pyrimidin-4-ylamino)ethyl]thiazol-2-yl}-urea]
[1]; plasma, read-out: half-life in plasma (converted)
  half-life: 282 min
[1]; tumor, read-out: half-life in tumor (converted)
  half-life: 450 min
[2]; 1 hr postdose, HCT 116 xenograft mice, FIG. 43B
  plasma concentration that produced maximal inhibition of phosphorylation of Histone H3 in tumor: 5 µM
[6]; Bile, interval 0-8 hr
  Mean cumulative % recovery: 39.7%
[6]; Bile, interval 8-24 hr
  Mean cumulative % recovery: 68.5%
[6]; Bile, interval 24-48 hr
  Mean cumulative % recovery: 69.5%
[6]; Cumulative Total, 24 hr
  Mean cumulative % recovery: 89.7%
[6]; Cumulative Total, 48 hr
  Mean cumulative % recovery: 92.3%
[6]; Feces, interval 0-24 hr
  Mean cumulative % recovery: 11.8%
[6]; Feces, interval 24-48 hr
  Mean cumulative % recovery: 13.2%
[6]; Urine, interval 0-8 hr
  Mean cumulative % recovery: 6.1%
[6]; Urine, interval 8-24 hr
  Mean cumulative % recovery: 9.4%
[6]; Urine, interval 24-48 hr
  Mean cumulative % recovery: 9.6%
[7]; 60 mg/m2, rat, 60 mg/m^2
  clearance: 17.2 mL/min/kg
  half-life: 84 min
[7]; 60 mg/m2, rat, 60 mg/m^2, read-out: Vss
  Vd: 1.3 L/kg
[7]; 300 mg/m2, rat, 300 mg/m^2
  clearance: 4 mL/min/kg
  half-life: 102 min
[7]; 300 mg/m2, rat, 300 mg/m^2, read-out: Vss
  Vd: 1.1 L/kg
[7]; 600 mg/m2, rat, 600 mg/m^2
  clearance: 2 mL/min/kg
  half-life: 354 min
[7]; 600 mg/m2, rat, 600 mg/m^2, read-out: Vss
  Vd: 1.1 L/kg
[7]; most pronounced in rats and mice, lesser extent in dogs
  dose dependence of systemic exposure (AUC): non-linear systemic exposure
